# Results: patent publication US20200022957A1, “KINASE AND UBIQUITIN LIGASE INHIBITORS AND USES THEREOF” (ALDA S.R.L., priority 2015, published 2020)
# How the values were obtained:
# [1] = system: hERG mutant (G601S); experiment: Proteostasis of hERG mutant in transfected CFBE cells (western blotting); type: cell-based, human
# Procedure: (§1) C. CFBE cells were treated with 5 μM oxozeaenol for 48 h, or with MLK3 siRNA, or with both, and the correction of the F508del-CFTR folding/trafficking defect was monitored by changes in the levels of band C. There was no additive effect observed with the combination of MLK3 downregulation and oxozeaenol treatment. The quantitated band C levels are expressed as mean±SD (n>3). D. CFBE cells were treated with 5 μM oxozeaenol for 24 h, and the activity of the JNK pathway was measured by western blotting for phospho c-jun levels and F508del-CFTR. […] E. CFBE cells were treated with flunarizine (at concentrations 6.25-50 μM) targeting the CAMKK2 pathway for 48 h and the effect on F508del-CFTR proteostasis measured by western blotting. Treatment with flunarizine increased the levels of band C of F508del-CFTR. […] F. CFBE cells transiently transfected with the P-glycoprotein mutant (P-gp DY490), the NCC mutant (R948X), or the hERG mutant (G601S) were treated with JNKi II for 24 h, and the effect of the drug on their proteostasis monitored by western blotting.
# (§2) The level of correction obtained with these inhibitors is higher than the effects of the corrector compounds from which the pathways were deduced (FIG. 3A), and similar to, or higher than, the effects of VX-809. […]
# [2] = system: P-glycoprotein mutant (P-gp DY490); experiment: Proteostasis of P-glycoprotein mutant in transfected CFBE cells (western blotting); type: cell-based
# Procedure: as §1, §2
# [3] = system: ATP7B R778L; experiment: ATP7B R778L translocation from ER to Golgi in HeLa cells (fluorescence microscopy); type: cell-based, human; details: JNKi II 5 μM, 48 h, fraction of protein in Golgi by fluorescence microscopy, DMSO control 12
# Description: Inventors next examined the effects of the MLK3 pathway inhibition on the proteostasis of other conformational disease mutants. Inventors transfected CFBE (and HeLa) cells with different conformational mutants (i.e., Sodium-chloride symporter [NCC, [MUT] mutant]; P-glycoprotein, [P-gp, [MUT] and DY490 mutants]; human Ether-a-go-go-Related Gene [hERG, [MUT] mutant]; Wilson's disease associated protein [ATP7B, [MUT] and [MUT] mutants]) and then treated cells with JNKi II and monitored these proteins by assessing changes in their glycosylation patterns (NCC, P-gp, hERG mutants) or in their intracellular movement from the ER to the Golgi complex (ATP7B mutants). […] CFBE or HeLa cells (in case of ATP7B) were transfected with constructs encoding the indicated mutant proteins and treated with JNKi II for 48 h.
# [4] = system: F508del-CFTR; experiment: F508del-CFTR proteostasis by western blotting (ER band B / Golgi-processed band C) in CFBE cells; type: cell-based, human; details: 48 h, concentration series
# Procedure: Cells were washed three times in ice-cold Dulbecco's phosphate-buffered saline, and lysed in RIPA buffer (150 mM NaCl, 1% Triton X-100, 0.5% deoxycholic acid, 0.1% SDS, 20 mM Tris-HCl, pH 7.4), supplemented with protease inhibitor cocktail and phosphatase inhibitors. The lysates were clarified by centrifugation at 15000×g for 15 min, and the supernatants were resolved by SDS-PAGE. BCA Protein Assay kit (Pierce) was used to quantitate protein levels before loading. The western blots were decorated with appropriate antibodies and developed using ECL. The blots were then exposed to x-ray films and exposure time was varied to obtain optimal signal. The x-ray films were then scanned and the bands were quantitated using ImageJ gel-analysis tool. The protein concentration and the exposures used for quantitation of the blots were optimized to be in a linear range of detection.
# Inventors then turned to experimental validation of the role of the CORE genes in the regulation of F508del-CFTR proteostasis. Experiments were carried out using a characterised biochemical assay that detects both the amount of core-glycosylated CFTR trapped in the ER (band B with Western blotting) and the amount of CFTR fully glycosylated in the Golgi (most of which presumably resides at the PM; band C with Western blotting).
# [5] = system: ATP7B H1069Q; experiment: Morphological assay of ATP7B H1069Q exit from ER to Golgi in HeLa cells (fluorescence microscopy); type: cell-based, human; details: ATP7B H1069Q; JNKi II 5 μM, 48 h; HeLa cells; fraction of protein in Golgi by fluorescence microscopy; DMSO control 32
# Procedure: Cells were transfected with ATP7B-WT-GFP or ATP7B-H1069Q-GFP, incubated overnight with 200 μM BCS and/or drugs. Fixed cells were further labeled for TGN46 to mark and visualize the Golgi area under a confocal microscope. Under low copper conditions ATP7B-WT traffics to the Golgi from the ER, while ATP7B-H1069Q is retained within the ER. If the drug treatments induce the rescue of trafficking from the ER to the Golgi, the ATP7B-H1069Q-GFP fluorescence in the Golgi area increases. This is measured by quantifying (in 10 different microscopy fields in 100 cells) the increased in fluorescence of ATP7BWT-GFP or ATP7BH1069Q-GFP in the Golgi area (marked by TGN46) and normalizing this value to total cell fluorescence
# CFBE or HeLa cells (in case of ATP7B) were transfected with constructs encoding the indicated mutant proteins and treated with JNKi II for 48 h.
# [6] = system: ATP7BH1069Q; experiment: Immunofluorescence assay for correction of ATP7B: cells with ATP7BH1069Q signal in the ER, HeLa cells; type: cell-based, human; details: 24 h, SB202190 5 μM, VX-745 1 μM, SP600125 2 μM, Oxozeaenol 5 μM, 100 μM CuSO4 2 h
# Procedure: (A) HeLa cells were infected with Ad-ATP7BWT-GFP (Chesi et al., 2016) or Ad-ATP7BH1069Q-GFP, incubated overnight with 200 μM BCS, and incubated for an additional 2 h with 100 μM CuSO4. In response to Cu, ATP7BWT traffics from the Golgi to PM and vesicle, while ATP7BH1069Q are retained within the ER under high Cu conditions. Addition of p38 inhibitor SB202190 (5 μM), VX-745(1 μM), JNK inhibitor SP600125 (2 μM) and Oxozeaenol (5 μM) (as indicated in corresponding panels) to the cells 24 h corrects ATP7BH1069Q from the ER to PM and vesicles (arrows) (B) Cells were treated as in panel A. The percentage of the cells (average±SD, n=50 fields) with an ATP7B signal in the ER, were calculated.
# Cells were fixed with 4% paraformaldehyde in 0.2 M HEPES for 10 mins, permeabilized, labeled with primary and secondary antibodies, and examined with a ZEISS LSM 700 confocal microscope equipped with a 63×1.4 numerical aperture oil objective. The cells were scored based on the disappearance of ATP7B from the ER.
# [7] = system: NCC mutant (R948X); experiment: Proteostasis of NCC mutant in transfected CFBE cells (western blotting); type: cell-based
# Procedure: as §1, §2
smiles,measurement,setting,value
O=C1c2ccccc2-c2n[nH]c3cccc1c23 [JNKi II],"proteostasis of hERG mutant (G601S), levels of bands B and C",[1]; JNKi II 24 h,enhanced degradation
same,Correction (% of wild type),"[1]; table row 'hERG R948X', JNKi II 5 μM, 48 h, protein processed by the Golgi, DMSO control 44",24 % of wild type
same,trafficking of P-gp DY490 out of the ER (Golgi-associated band C),[2]; JNKi II 24 h,enhanced
same,Correction (% of wild type),"[2]; P-Glycoprotein DY490, JNKi II 5 μM, 48 h, protein processed by the Golgi, DMSO control 24",44 % of wild type
same,Correction (% of wild type),[3],40 % of wild type
same,levels of band B and band C of F508del-CFTR,[4],robust increases
same,Correction (% of wild type),[5],80 % of wild type
same,percentage of the cells exhibiting ATP7BH1069Q in the ER,[6],reduced
same,"proteostasis of NCC mutant (R948X), levels of bands B and C",[7]; JNKi II 24 h,enhanced degradation
same,Correction (% of wild type),"[7]; table row 'NCC G601S', JNKi II 5 μM, 48 h, protein processed by the Golgi, DMSO control 10",9 % of wild type
